ChEMBL document CHEMBL4028801, “A multifactorial approach to hepatobiliary transporter assessment enables improved therapeutic compound development” (Toxicol Sci, 2013)

How the values were obtained:
[1] = biological target: ATP-binding cassette sub-family C member 3 (Homo sapiens, UniProt O15438); assay: Inhibition of human MRP3 overexpressed in Sf9 insect cell membrane vesicles assessed as uptake of [3H]-estradiol-17beta-D-glucuronide in presence of ATP and GSH measured after 10 mins by membrane vesicle transport assay; type: ADME, cell-based
[2] = biological target: ATP-binding cassette sub-family C member 2 (Homo sapiens, UniProt Q92887); assay: Inhibition of human MRP2 overexpressed in Sf9 cell membrane vesicles assessed as uptake of [3H]-estradiol-17beta-D-glucuronide in presence of ATP and GSH measured after 20 mins by membrane vesicle transport assay
[3] = AUC in human at 30 to 60 mg, po QD after 24 hrs; type: ADME, organism-based; details: in vivo
[4] = biological target: T1, ATP-binding cassette sub-family C member 4 (Homo sapiens, UniProt O15439); assay: Inhibition of human MRP4 overexpressed in Sf9 cell membrane vesicles assessed as uptake of [3H]-estradiol-17beta-D-glucuronide in presence of ATP and GSH measured after 20 mins by membrane vesicle transport assay; type: ADME, cell-based
T1 sequence (O15439 whole entry): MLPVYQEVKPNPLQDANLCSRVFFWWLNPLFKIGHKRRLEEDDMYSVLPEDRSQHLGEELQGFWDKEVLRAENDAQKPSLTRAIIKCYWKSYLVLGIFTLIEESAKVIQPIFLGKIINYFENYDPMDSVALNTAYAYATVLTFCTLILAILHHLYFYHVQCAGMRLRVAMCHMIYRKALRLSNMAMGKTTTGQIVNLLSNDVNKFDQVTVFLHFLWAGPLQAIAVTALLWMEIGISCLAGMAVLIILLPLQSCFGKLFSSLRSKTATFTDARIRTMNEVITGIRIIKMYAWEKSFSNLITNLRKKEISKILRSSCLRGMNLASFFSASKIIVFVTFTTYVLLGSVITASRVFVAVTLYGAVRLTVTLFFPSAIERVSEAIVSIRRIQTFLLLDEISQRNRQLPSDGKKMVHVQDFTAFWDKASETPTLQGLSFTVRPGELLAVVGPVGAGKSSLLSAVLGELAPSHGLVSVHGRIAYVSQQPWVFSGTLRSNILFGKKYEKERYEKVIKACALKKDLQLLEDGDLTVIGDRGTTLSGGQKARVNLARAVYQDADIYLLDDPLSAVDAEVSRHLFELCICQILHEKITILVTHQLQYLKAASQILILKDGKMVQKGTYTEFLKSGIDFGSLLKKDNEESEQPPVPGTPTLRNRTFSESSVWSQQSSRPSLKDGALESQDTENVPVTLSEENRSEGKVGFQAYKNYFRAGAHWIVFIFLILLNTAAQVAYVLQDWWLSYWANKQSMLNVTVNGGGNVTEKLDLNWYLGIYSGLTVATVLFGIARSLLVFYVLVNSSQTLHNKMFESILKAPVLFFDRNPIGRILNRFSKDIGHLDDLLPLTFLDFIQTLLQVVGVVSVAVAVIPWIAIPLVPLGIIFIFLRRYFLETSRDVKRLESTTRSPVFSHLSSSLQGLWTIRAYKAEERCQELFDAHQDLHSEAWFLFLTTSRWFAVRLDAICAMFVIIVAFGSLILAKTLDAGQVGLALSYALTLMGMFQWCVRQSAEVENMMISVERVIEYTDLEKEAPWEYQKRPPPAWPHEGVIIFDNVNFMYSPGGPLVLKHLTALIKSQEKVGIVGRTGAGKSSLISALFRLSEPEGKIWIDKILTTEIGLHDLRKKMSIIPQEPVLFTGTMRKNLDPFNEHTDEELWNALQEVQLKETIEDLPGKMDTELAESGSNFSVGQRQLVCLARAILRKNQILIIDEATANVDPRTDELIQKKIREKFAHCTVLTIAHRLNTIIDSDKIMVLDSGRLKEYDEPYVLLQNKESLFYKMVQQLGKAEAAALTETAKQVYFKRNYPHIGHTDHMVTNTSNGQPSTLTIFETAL

[5] = biological target: Bile salt export pump (Homo sapiens, UniProt O95342); assay: Inhibition of human BSEP overexpressed in Sf9 cell membrane vesicles assessed as uptake of [3H]-taurocholate in presence of ATP measured after 15 to 20 mins by membrane vesicle transport assay; type: ADME, cell-based
[6] = test system: Homo sapiens; assay: Drug concentration at steady state in human at 20 to 40 mg, iv QD after 24 hrs; type: ADME, organism-based; details: in vivo
[7] = Ratio of drug concentration at steady state in human at 20 to 40 mg, iv QD after 24 hrs to IC50 for human BSEP overexpressed in Sf9 insect cells; type: ADME, organism-based; details: in vivo
[8] = AUC in human at 20 to 40 mg, iv QD after 24 hrs; type: ADME, organism-based; details: in vivo
[9] = AUC in human at 15 mg, po QD for 14 days after 24 hrs; type: ADME, organism-based; parameters: dose 15 mg, time < 24 hr, route oral; details: in vivo
[10] = Drug concentration at steady state in human at 15 mg, po QD for 14 days after 24 hrs; type: ADME, organism-based; details: in vivo, read-out: Css
[11] = Ratio of drug concentration at steady state in human at 15 mg, po QD for 14 days after 24 hrs to IC50 for human BSEP overexpressed in Sf9 insect cells; type: ADME, organism-based; details: in vivo
[12] = AUC in human at 300 to 900 mg, po QD after 24 hrs; type: ADME, organism-based; details: in vivo
[13] = Ratio of drug concentration at steady state in human at 300 to 900 mg, po QD after 24 hrs to IC50 for human MRP2 overexpressed in Sf9 insect cells; type: ADME, organism-based; details: in vivo
[14] = Ratio of drug concentration at steady state in human at 300 to 900 mg, po QD after 24 hrs to IC50 for human BSEP overexpressed in Sf9 insect cells; type: ADME, organism-based; details: in vivo
[15] = Ratio of drug concentration at steady state in human at 300 to 900 mg, po QD after 24 hrs to IC50 for human MRP4 overexpressed in Sf9 insect cells; type: ADME, organism-based; details: in vivo
[16] = Drug concentration at steady state in human at 300 to 900 mg, po QD after 24 hrs; type: ADME, organism-based; details: in vivo, read-out: Css
[17] = Drug concentration at steady state in human at 800 mg administered once per week for 6 weeks through intravesical instillation measured after 6 hrs; type: ADME; details: in vivo, read-out: Css
[18] = Ratio of drug concentration at steady state in human at 800 mg administered once per week for 6 weeks through intravesical instillation measured after 6 hrs to IC50 for human BSEP overexpressed in Sf9 insect cells; type: ADME; details: in vivo, other
[19] = Ratio of drug concentration at steady state in human at 800 mg administered once per week for 6 weeks through intravesical instillation measured after 6 hrs to IC50 for human MRP2 overexpressed in Sf9 insect cells; type: ADME; details: in vivo, other
[20] = AUC (0 to 6 hrs) in human at 800 mg administered once per week for 6 weeks through intravesical instillation measured after 6 hrs; type: ADME; parameters: dose 800 mg, time < 6 hr; details: in vivo
[21] = Ratio of drug concentration at steady state in human at 800 mg administered once per week for 6 weeks through intravesical instillation measured after 6 hrs to IC50 for human MRP3 overexpressed in Sf9 insect cells; type: ADME; details: in vivo, other
[22] = Ratio of drug concentration at steady state in human at 800 mg administered once per week for 6 weeks through intravesical instillation measured after 6 hrs to IC50 for human MRP4 overexpressed in Sf9 insect cells; type: ADME; details: in vivo, other

ATP-binding cassette sub-family C member 3, sequence (O15438 whole entry): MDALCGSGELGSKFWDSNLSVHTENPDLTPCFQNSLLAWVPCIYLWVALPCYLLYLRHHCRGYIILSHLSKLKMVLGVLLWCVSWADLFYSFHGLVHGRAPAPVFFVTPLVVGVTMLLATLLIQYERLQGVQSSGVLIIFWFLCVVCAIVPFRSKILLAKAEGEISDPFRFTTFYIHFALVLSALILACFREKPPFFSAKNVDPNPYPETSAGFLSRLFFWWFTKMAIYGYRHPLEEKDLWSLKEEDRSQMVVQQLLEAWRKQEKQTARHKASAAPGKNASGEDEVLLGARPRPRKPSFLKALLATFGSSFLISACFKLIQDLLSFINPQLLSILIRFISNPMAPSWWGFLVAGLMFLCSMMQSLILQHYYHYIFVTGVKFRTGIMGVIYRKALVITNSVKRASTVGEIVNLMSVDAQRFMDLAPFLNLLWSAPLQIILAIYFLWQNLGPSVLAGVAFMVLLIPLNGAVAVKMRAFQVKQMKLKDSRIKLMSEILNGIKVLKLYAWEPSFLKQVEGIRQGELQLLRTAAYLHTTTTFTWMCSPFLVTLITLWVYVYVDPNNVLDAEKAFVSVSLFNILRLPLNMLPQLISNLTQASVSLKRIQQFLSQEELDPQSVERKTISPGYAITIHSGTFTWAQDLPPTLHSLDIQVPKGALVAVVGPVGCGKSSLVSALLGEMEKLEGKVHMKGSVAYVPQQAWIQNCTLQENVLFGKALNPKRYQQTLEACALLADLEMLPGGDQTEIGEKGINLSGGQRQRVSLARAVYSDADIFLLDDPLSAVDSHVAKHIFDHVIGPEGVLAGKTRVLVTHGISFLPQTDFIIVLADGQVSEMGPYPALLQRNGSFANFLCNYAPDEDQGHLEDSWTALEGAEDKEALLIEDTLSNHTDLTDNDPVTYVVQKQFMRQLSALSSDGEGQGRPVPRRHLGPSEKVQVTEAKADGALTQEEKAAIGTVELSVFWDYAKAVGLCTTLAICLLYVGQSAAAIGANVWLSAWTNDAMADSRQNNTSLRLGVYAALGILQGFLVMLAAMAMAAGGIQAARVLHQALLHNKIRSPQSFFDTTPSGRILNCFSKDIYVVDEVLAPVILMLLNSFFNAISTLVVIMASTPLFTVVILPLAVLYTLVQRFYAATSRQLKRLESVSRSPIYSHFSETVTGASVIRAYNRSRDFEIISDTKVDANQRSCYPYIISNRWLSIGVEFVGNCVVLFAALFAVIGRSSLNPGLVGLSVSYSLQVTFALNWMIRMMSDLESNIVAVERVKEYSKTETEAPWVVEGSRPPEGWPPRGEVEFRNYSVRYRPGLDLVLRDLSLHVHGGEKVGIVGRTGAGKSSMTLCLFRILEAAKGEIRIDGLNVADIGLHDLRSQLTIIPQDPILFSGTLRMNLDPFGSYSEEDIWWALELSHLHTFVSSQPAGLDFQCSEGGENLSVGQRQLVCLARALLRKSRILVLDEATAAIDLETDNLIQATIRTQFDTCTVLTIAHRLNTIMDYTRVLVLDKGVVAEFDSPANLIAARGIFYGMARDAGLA
ATP-binding cassette sub-family C member 2, sequence (Q92887 whole entry): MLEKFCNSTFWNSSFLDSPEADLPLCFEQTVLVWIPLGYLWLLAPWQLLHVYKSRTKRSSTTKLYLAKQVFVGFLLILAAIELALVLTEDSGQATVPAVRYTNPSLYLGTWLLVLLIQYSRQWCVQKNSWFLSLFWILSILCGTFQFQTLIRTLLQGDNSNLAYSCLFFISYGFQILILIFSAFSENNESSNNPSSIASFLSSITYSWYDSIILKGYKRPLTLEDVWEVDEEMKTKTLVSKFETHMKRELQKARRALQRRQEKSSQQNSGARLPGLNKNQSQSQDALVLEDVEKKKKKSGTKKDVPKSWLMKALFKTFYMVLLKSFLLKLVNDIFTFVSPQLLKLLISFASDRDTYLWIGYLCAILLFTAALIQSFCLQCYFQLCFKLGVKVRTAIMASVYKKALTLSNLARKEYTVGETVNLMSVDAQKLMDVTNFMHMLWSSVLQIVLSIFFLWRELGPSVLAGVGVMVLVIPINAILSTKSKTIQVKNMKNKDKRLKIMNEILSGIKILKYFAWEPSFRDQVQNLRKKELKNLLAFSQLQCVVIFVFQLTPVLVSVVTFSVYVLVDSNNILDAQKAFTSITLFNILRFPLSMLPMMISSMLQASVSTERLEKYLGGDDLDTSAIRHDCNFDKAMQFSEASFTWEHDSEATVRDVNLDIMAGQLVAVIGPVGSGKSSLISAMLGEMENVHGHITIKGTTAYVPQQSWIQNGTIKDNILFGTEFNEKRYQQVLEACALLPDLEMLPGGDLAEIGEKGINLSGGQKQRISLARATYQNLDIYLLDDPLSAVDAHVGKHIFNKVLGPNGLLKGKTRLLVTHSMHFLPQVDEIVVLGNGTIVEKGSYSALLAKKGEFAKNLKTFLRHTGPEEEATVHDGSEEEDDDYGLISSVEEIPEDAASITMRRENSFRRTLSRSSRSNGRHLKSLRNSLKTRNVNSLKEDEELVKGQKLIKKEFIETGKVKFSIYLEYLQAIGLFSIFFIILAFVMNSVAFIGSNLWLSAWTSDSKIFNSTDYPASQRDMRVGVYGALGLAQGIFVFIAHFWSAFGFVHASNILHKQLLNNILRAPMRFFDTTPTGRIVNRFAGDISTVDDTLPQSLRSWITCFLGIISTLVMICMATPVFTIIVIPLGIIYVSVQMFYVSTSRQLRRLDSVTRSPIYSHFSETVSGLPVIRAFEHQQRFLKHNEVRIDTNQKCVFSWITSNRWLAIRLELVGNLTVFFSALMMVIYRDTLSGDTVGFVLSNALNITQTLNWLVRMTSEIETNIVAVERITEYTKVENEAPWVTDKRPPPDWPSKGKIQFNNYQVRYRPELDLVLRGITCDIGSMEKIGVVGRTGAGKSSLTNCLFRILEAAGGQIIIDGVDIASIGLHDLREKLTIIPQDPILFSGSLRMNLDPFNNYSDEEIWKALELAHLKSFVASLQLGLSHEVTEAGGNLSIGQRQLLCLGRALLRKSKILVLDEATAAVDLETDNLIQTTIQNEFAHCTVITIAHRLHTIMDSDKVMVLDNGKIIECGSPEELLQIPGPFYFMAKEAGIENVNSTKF
Bile salt export pump, sequence (O95342 whole entry): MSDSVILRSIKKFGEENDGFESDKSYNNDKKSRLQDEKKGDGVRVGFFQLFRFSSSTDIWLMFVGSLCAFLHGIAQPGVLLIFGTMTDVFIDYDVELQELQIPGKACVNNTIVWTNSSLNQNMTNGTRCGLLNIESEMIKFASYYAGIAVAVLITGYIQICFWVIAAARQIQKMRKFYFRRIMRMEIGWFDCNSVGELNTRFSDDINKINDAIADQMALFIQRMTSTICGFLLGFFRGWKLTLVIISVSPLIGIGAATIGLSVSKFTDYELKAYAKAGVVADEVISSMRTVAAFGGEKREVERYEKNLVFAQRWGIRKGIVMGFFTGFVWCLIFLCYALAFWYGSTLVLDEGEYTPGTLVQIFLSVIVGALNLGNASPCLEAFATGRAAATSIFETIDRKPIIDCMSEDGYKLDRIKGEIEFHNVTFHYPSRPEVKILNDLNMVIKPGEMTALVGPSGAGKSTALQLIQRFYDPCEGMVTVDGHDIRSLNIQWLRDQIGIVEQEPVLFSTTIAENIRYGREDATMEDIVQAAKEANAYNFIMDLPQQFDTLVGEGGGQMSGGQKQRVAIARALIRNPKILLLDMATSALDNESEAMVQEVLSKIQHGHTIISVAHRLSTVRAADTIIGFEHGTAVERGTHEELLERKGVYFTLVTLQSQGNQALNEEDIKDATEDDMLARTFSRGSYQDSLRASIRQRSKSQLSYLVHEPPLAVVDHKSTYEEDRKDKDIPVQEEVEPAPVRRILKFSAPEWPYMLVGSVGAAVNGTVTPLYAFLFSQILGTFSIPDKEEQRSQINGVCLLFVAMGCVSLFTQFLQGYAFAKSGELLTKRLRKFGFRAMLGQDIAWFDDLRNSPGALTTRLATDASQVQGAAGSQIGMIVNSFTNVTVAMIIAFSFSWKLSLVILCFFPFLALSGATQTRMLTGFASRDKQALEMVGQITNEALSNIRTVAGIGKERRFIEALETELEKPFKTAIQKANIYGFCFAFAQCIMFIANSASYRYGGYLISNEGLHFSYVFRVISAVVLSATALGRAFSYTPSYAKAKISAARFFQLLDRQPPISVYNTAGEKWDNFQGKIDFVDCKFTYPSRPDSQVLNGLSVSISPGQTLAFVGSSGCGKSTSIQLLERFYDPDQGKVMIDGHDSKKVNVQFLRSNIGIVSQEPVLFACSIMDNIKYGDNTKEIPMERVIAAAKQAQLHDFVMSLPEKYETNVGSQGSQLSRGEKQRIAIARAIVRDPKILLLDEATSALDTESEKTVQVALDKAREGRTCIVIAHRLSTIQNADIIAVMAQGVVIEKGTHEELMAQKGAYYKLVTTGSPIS

COC(=O)C1=C(C)NC(C)=C(C(=O)OC)C1c1ccccc1[N+](=O)[O-] [NIFEDIPINE]
IC50 [1]: > 133 µM | IC50 [2]: > 133 µM | AUC at 24 h [3]: 3.48 µM·h | IC50 [4]: 16.6 µM

COc1ccc2[nH]c([S+]([O-])Cc3ncc(C)c(OC)c3C)nc2c1 (stereo not given) [OMEPRAZOLE]
IC50 [5]: 99 µM | Css [6]: 468.2 nM | Ratio [7]: 0.005 | IC50 [1]: > 133 µM | IC50 [2]: > 133 µM | AUC at 24 h [8]: 11.2 µM·h | IC50 [4]: > 133 µM

COc1cc(NC(C)CCCN)c2ncccc2c1 (stereo not given) [PRIMAQUINE]
AUC at 24 h [9]: 1.71 µM·h | IC50 [1]: > 133 µM | IC50 [2]: > 133 µM | concentration at 24 h [10]: 71 nM | Ratio [11]: 0.002 | IC50 [4]: > 133 µM

CO[C@H]1/C=C/O[C@@]2(C)Oc3c(C)c(O)c4c(c3C2=O)C2=NC3(CCN(CC(C)C)CC3)NC2=C(NC(=O)/C(C)=C\C=C\[C@H](C)[C@H](O)[C@@H](C)[C@@H](O)[C@@H](C)[C@H](OC(C)=O)[C@@H]1C)C4=O [RIFABUTIN]
AUC at 24 h [12]: 2.43 µM·h | Ratio [13]: 0.002 | IC50 [1]: > 133 µM | IC50 [2]: 49.8 µM | Ratio [14]: 0.004 | Ratio [15]: 0.006 | concentration at 24 h [16]: 101 nM | IC50 [4]: 15.9 µM

CCCCC(=O)OCC(=O)[C@]1(O)Cc2c(O)c3c(c(O)c2[C@@H](O[C@H]2C[C@H](NC(=O)C(F)(F)F)[C@H](O)[C@H](C)O2)C1)C(=O)c1c(OC)cccc1C3=O [VALRUBICIN]
concentration at 6 h [17]: 131 nM | IC50 [5]: 24.1 µM | Ratio [18]: 0.005 | Ratio [19]: 0.002 | IC50 [1]: 76.3 µM | IC50 [2]: 64 µM | AUC at 6 h [20]: 0.788 µM·h | Ratio [21]: 0.002 | Ratio [22]: 0.004 | IC50 [4]: 36.8 µM
